Measurements reported in patent US4910302A, “Psychotropic polycyclic imides” (American Home Products Corporation, priority 1988, dated 1990).

Experiments:
[1] = biological target: T1, serotonin 5-HT1A receptor (Rattus norvegicus, UniProt P19327); test: serotonin 5-HT1A receptor binding, displacement of [3H] 8-OHDPAT; design: following the procedure of Hall et al., J. Neurochem; 44 1685 (1985); from tissue; conditions: for inhibition at 0.1 µM: as marked beside the value
T1 sequence (P19327 1-422): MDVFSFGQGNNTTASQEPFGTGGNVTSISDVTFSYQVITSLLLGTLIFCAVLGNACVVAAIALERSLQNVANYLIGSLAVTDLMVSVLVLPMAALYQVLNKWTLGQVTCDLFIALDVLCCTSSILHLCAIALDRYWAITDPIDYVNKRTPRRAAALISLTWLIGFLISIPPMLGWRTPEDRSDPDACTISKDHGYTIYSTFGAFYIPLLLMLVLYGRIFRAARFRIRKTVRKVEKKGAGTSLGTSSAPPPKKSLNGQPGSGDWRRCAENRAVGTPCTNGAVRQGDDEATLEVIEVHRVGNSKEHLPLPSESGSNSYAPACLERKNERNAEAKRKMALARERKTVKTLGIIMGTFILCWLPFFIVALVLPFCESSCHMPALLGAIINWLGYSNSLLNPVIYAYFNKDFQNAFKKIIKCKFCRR
From the text: High affinity for the serotonin 5-HT1A receptor was established by testing the claimed compounds ability to displace [^3 H] 8-OHDPAT (dipropylaminotetralin) from the 5HT1A serotonin receptor following the procedure of Hall et al., J. Neurochem. 44 1685 (1985). […] The anxiolytic activity of buspirone is believed to be, at least partially, due to its 5-HT1A receptor affinity (Vander Maclen et al., Eur. J. Pharmacol. 1986, 129 (1-2) […].

[2] = biological target: T2, dopamine D-2 receptor (Rattus norvegicus, UniProt P61169); test: dopamine D-2 receptor binding, displacement of 3H-spiroperidol, homogenized limbic brain tissue
T2 construct: from tissue; host or cells: homogenized limbic brain tissue
T2 sequence (P61169 whole entry): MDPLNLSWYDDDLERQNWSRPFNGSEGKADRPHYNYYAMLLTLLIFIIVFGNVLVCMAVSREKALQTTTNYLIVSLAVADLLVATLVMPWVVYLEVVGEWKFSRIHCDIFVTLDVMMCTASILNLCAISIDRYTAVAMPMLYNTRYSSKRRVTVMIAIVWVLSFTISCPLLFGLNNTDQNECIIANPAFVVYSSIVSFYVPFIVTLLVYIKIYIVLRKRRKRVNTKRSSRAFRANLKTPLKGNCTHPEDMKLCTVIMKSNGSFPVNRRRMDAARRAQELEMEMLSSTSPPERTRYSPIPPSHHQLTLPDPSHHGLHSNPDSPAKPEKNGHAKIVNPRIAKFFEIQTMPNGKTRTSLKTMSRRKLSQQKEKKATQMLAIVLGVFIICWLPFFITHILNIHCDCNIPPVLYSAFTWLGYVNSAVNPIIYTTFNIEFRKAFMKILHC
Protocol: High affinity for the dopamine D-2 receptor was established by the standard experimental test procedure of Fields et al., Brain Res., 136 578 (1977) and Yamamura et al., eds., Neurotransmitter Receptor Binding, Raven Press, N.Y. (1978) wherein homogenized limbic brain tissue is incubated with ^3 H-spiroperidol and various concentrations of test compound, filtered and washed and shaken with Hydrofluor scintillation cocktail (National Diagnostics) and counted in a Packard 460 CD scintillation counter.

[3] = system: 5-HT1A receptor; conditions: cited from earlier work
[4] = biological target: T1, serotonin 5-HT1A receptor; conditions: in words; standard for anxiolytic activity; cited from earlier work

Structure (SMILES): O=C1C2C3C=CC(C4C=CC43)C2C(=O)N1CCNCC1COc2ccccc2O1 (stereo not shown) [Example 7, 2-[2-[(2,3-Dihydro-1,4-benzodioxan-2-ylmethyl)amino]ethyl]hexahydro-4,7-etheno-1H-cyclobut[f]isoindole-1,3-(2H)-dione]
- inhibition at 0.1 µM [1]: 92%
- inhibition at 1 µM [2]: 54%

Structure (SMILES): O=C1C2CC(C(=O)N1CCCCNCC1COc3ccccc3O1)C1C2C2C3CC4C2C4C31 (stereo not shown) [Example 1, Decahydro-3-[4-[(2,3-dihydro-1,4-benzodioxan-2-ylmethyl)amino]butyl]-1,5-methano-6,7,9-metheno-2H-pentaleno[1,2-d]azepine-2,4(3H)-dione]
- inhibition at 1 µM ([1]; at 1 μM): 96%
- inhibition at 1 µM [2]: 100%

Structure (SMILES): O=C1C2CC(C(=O)N1CCNCC1COc3ccccc3O1)C1C2C2C3CC4C2C4C31 (stereo not shown) [Example 8, Decahydro-3-[2-[(2,3-dihydro-1,4-benzodioxan-2-ylmethyl)amino]ethyl]-1,5-methano-6,7,9-metheno-2H-pentaleno[1,2d]azepine-2,4(3H)-dione]
- inhibition at 0.1 µM [1]: 100%
- inhibition at 1 µM [2]: 89%

Structure (SMILES): O=C1C2C3C=CC(C4CC34)C2C(=O)N1CCCCNCC1COc2ccccc2O1 (stereo not shown) [Example 5]
- inhibition at 1 µM ([1]; at 1 μM): 100%
- inhibition at 1 µM [2]: 100%

Structure (SMILES): O=C1CC2(CCCC2)CC(=O)N1CCCCNCC1COc2ccccc2O1 (single isomer, unassigned) [-(MDL) 72832]
- binding at the 5-HT1A receptor site relative to the dextro rotatory isomer ([3]; ratio to dextro rotatory isomer): 32 times

Structure (SMILES): O=C1C2C(C(=O)N1CCCCNCC1COc3ccccc3O1)C1C3CC4C(C32)C41 (stereo not drawn) [Example 2, Endo-2-[4-[(2,3-dihydro-1,4-benzodioxan-2-ylmethyl)amino]butyl]octahydro-4,5,7-metheno-1H-pentaleno[1,2-c]pyrrole-1,3(2H)-dione]
- inhibition at 1 µM ([1]; at 1 μM): 96%
- inhibition at 1 µM [2]: 100%

Structure (SMILES): O=C1CC2(CCCC2)CC(=O)N1CCCCNCC1COc2ccccc2O1 (stereo not shown) [MDL 72832, 8-[4-(1,4-benzodioxan-2-ylmethylamino)butyl]-8-azaspiro[4.5]decane-7,9-dione]
- 5-HT1A receptor ligand character ([3]; in words): selective and stereospecific

Structure (SMILES): O=C1C2C3C=CC(C4C=CC43)C2C(=O)N1CCCCNCC1COc2ccccc2O1 (stereo not shown) [Example 4, 2-[4-[(2,3-Dihydro-1,4-benzodioxan-2-ylmethyl)amino]butyl]hexahydro-4,7-etheno-1H-cyclobut[f]isoindole-1,3-(2H)-dione]
- inhibition at 1 µM ([1]; at 1 μM): 100%
- inhibition at 1 µM [2]: 100%

Structure (SMILES): O=C1C2C(C(=O)N1CCCCNCC1COc3ccccc3O1)C1C3CC4C(C32)C41 (stereo not drawn) [Example 3, Exo-2-[4-[(2,3-dihydro-1,4-benzodioxan-2-ylmethyl)amino]butyl]octahydro-4,5,7-metheno-1H-pentaleno[1,2c]pyrrole-1,3(2H)-dione]
- 5-HT1A Binding (% Inhibition at 1 μM) ([1]; at 1 μM): 94%
- D-2 Binding (% Inhibition at 1 μM) ([2]; at 1 μM): 100%

Structure (SMILES): CC1(C)[C@@H]2CC[C@@]1(C)C(=O)N(CCNCC1COc3ccccc3O1)C2=O (stereo partly shown) [Example 6]
- inhibition at 0.1 µM [1]: 52%
- inhibition at 1 µM [2]: 61%

Structure (SMILES): O=C1CC2(CCCC2)CC(=O)N1CCCCN1CCN(c2ncccn2)CC1 [buspirone]
- affinity for the 5-HT1A serotonin receptor subtype [4]: potent affinity
